Laboratory results taken from BindingDB's records for patent US10508104 (Bristol Myers Squibb, 2019).

Target: T1, Apelin receptor (Homo sapiens, UniProt P35414)
T1 sequence (P35414 whole entry): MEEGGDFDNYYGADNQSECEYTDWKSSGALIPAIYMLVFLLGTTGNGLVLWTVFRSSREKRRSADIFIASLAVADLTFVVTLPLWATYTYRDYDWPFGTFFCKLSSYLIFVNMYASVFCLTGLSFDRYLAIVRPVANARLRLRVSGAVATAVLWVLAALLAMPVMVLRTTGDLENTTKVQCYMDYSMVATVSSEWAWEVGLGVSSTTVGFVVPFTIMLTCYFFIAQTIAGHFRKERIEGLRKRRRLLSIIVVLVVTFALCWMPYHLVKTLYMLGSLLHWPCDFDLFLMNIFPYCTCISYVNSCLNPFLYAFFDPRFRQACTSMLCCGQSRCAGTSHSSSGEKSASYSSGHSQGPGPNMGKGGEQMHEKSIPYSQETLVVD
Experiment: Intracellular cAMP Accumulation Assay
Protocol: HEK293 cells stably expressing human APJ receptor were used to assess the activity of compounds. Cultured cells were detached and resuspended in the cAMP Homogeneous Time-Resolved Fluorescence (HTRF) assay buffer (Cisbio cat; #62AM4PEJ). […] Serial dilutions of a compound together with assay buffer containing […] and 2 μM forskolin were added to each well containing 5,000 cells and incubated for 30 minutes at room temperature. Subsequently, cAMP D2 reagent was added in the lysis buffer followed by the EuK antibody (Cisbio; cat #62AM4PEJ) and incubated for 60 min. The fluorescence emission ratio was measured using fluorometer. The intracellular cAMP concentrations (compound-stimulated inhibition of forskolin-mediated cAMP production) were calculated by extrapolation from a standard curve using known cAMP concentrations. The EC50 values were obtained by fitting the data to a sigmoidal concentration-response curve with variable slope.

CCCCC1NC(=O)C(S(=O)(=O)c2ccc(-c3ccnc(F)c3C)cc2)=C(O)N1[C@@H](CC)c1cccc(OC)c1 (stereo partly specified) [US10508104, Example 169]
EC50: in the range around 5 nM
